Laboratory results published in ChEMBL document CHEMBL1909046, “DrugMatrix in vitro pharmacology data”.

How the values were obtained:
[1] = molecular target: T1, Alpha-1D adrenergic receptor (Homo sapiens, UniProt P25100); format: cell membranes, HEK293, Membrane; settings: for Ki: read-out: Ki; on all read-outs here: in other assays of this panel Not Active means under 50% inhibition at 10 µM
T1 sequence (P25100 whole entry): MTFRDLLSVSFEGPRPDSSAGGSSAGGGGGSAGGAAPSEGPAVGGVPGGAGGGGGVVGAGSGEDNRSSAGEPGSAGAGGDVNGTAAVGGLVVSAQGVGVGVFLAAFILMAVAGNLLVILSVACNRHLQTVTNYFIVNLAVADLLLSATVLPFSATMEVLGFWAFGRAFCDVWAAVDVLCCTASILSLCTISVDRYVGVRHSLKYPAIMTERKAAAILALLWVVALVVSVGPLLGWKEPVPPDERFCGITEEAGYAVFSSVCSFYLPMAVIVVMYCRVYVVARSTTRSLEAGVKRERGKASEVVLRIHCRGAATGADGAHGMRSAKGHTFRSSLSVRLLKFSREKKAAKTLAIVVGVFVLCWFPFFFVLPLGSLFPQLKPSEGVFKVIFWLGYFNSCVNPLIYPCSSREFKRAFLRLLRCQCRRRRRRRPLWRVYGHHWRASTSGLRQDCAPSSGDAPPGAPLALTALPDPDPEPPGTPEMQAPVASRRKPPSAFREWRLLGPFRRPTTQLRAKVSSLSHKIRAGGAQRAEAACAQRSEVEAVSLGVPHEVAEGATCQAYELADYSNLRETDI

[2] = molecular target: Sodium-dependent dopamine transporter (Homo sapiens, UniProt Q01959); test: DRUGMATRIX: Dopamine Transporter radioligand binding (ligand: [125I] RTI-55); format: cell membranes, CHO-K1, Membrane; settings: Not Active = under 50% inhibition at 10 µM
Chain of Sodium-dependent dopamine transporter (Q01959 whole entry): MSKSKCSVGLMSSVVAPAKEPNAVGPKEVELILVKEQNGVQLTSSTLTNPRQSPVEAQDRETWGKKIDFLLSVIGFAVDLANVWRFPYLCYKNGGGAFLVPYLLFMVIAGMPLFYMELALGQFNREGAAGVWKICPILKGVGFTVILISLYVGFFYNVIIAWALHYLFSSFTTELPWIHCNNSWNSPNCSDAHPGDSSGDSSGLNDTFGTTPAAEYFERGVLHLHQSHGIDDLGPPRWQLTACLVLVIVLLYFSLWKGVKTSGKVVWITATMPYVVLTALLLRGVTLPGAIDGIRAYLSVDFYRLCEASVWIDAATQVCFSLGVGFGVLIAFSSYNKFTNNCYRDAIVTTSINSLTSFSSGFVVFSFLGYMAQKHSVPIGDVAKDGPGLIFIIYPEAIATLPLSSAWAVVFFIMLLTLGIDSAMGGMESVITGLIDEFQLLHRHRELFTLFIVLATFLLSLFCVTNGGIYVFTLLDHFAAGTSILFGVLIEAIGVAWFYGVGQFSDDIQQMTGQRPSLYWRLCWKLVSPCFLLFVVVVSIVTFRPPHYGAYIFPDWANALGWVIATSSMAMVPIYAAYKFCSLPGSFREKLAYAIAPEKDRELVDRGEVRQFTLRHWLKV

[3] = DRUGMATRIX: Potassium Channel [KATP] radioligand binding (ligand: [3H] Glyburide); format: cell membranes, Membrane; settings: hit-t15; Not Active = under 50% inhibition at 10 µM
[4] = molecular target: Matrix metalloproteinase-9 (Homo sapiens, UniProt P14780); format: cell-based;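 further: inhibition of isolated MMP-9 enzyme activity toward a synthetic peptide substrate, from the DrugMatrix protease screening panel; in other assays of this panel Not Active means under 50% inhibition at 10 µM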
Chain of Matrix metalloproteinase-9 (P14780 whole entry): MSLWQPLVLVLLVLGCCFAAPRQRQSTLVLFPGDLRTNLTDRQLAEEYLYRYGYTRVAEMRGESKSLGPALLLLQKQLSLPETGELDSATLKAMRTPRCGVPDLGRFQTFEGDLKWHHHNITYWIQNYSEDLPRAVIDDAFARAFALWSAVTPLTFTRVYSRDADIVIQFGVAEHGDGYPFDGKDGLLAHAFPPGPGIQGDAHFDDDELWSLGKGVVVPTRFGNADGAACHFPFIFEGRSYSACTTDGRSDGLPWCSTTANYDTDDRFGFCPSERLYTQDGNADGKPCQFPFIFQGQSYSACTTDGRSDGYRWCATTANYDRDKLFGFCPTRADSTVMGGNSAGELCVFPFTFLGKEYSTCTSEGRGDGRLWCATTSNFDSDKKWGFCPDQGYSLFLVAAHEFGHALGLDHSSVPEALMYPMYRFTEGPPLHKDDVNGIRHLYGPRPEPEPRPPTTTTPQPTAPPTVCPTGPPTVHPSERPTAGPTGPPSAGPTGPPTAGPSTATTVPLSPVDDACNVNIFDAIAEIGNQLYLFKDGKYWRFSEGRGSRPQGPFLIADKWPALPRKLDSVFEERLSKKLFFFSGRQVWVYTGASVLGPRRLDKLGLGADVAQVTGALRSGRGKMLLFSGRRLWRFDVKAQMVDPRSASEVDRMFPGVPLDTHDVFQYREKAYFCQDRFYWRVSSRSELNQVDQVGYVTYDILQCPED

[5] = molecular target: Protein phosphatase 3 catalytic subunit alpha (Homo sapiens, UniProt Q08209); set-up: species or system Escherichia coli;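 further: inhibition of calcineurin (PP2B) enzyme activity, measured with DiFMUP as the substrate; in other assays of this panel Not Active means under 50% inhibition at 10 µM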
[6] = molecular target: T2, 5-hydroxytryptamine receptor 1A (Rattus norvegicus, UniProt P19327); format: cell membranes, CHO-K1, Membrane; further: in other assays of this panel Not Active means under 50% inhibition at 10 µM
T2 sequence (P19327 whole entry): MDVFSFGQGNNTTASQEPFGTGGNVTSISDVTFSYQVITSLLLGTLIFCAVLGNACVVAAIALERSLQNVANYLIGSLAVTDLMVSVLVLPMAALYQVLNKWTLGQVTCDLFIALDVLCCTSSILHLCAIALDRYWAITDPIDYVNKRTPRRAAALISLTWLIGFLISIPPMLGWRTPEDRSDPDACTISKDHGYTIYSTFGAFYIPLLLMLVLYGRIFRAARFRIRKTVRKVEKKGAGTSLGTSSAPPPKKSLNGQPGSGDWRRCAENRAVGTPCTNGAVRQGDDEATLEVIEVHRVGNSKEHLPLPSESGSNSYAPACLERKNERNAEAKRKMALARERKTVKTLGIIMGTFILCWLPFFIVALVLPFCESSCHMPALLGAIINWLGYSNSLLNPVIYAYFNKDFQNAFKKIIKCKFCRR

SMILES	IC50 ([1]; hek293)	IC50 ([2]; cho-k1)	IC50 [3]	Ki [3]	IC50 [4]	IC50 [5]	IC50 ([6]; cho-k1)	IC50 ([1]; read-out: IC50) [nM]	Ki [1] [nM]	IC50 ([6]; read-out: IC50) [nM]	Ki ([6]; read-out: Ki) [nM]	IC50 ([2]; read-out: IC50) [nM]	Ki ([2]; read-out: Ki) [nM]
CCCNC(C)C(=O)Nc1ccccc1C (stereo not given) [PRILOCAINE]	Not Active	Not Active	Not Active	Not Active	Not Active	Not Active	Not Active						
NS(=O)(=O)c1cc(C2(O)NC(=O)c3ccccc32)ccc1Cl (stereo not given) [CHLORTHALIDONE]	Not Active	Not Active	Not Active	Not Active	Not Active	Not Active	Not Active						
CCN(CC)CCCC(C)Nc1c2ccc(Cl)cc2nc2ccc(OC)cc12 (stereo not given) [QUINACRINE]		Not Active	Not Active	Not Active	Not Active	Not Active	Not Active	2070	1020				
CN1CCC(=C2c3ccccc3CC(=O)c3sccc32)CC1 [KETOTIFEN]		Not Active	Not Active	Not Active	Not Active	Not Active		3730	1830	2540	1450		
Cc1c(O)cccc1C(=O)N[C@@H](CSc1ccccc1)[C@H](O)CN1C[C@H]2CCCC[C@H]2C[C@H]1C(=O)NC(C)(C)C	Not Active		Not Active	Not Active	Not Active	Not Active	Not Active					15500	12300
Cn1c(=O)c2c(ncn2C)n(C)c1=O [CAFFEINE]	Not Active	Not Active	Not Active	Not Active	Not Active	Not Active	Not Active						
CC(C)NCC(O)c1ccccc1Cl (stereo not given) [CLORPRENALINE]	Not Active	Not Active	Not Active	Not Active	Not Active	Not Active	Not Active						
NC(=O)c1cccnc1 [NIACINAMIDE]	Not Active	Not Active	Not Active	Not Active	Not Active	Not Active	Not Active						
C[C@]12C=CC(=O)C=C1CC[C@H]1[C@@H]3C[C@@H](O)[C@](O)(C(=O)CO)[C@@]3(C)C[C@H](O)[C@@]12F [TRIAMCINOLONE]	Not Active	Not Active	Not Active	Not Active	Not Active	Not Active	Not Active						
CC(=O)OCC(=O)[C@@]1(O)CC[C@H]2[C@@H]3CCC4=CC(=O)CC[C@]4(C)[C@@]3(F)[C@@H](O)C[C@@]21C [FLUDROCORTISONE ACETATE]	Not Active	Not Active	Not Active	Not Active	Not Active	Not Active	Not Active						
CN(C)C(=O)Oc1cccc([N+](C)(C)C)c1.[Br-] [NEOSTIGMINE BROMIDE]	Not Active	Not Active	Not Active	Not Active	Not Active	Not Active	Not Active						
C[C@]12CC[C@@H]3c4ccc(O)cc4CC[C@H]3[C@@H]1C[C@@H](O)[C@@H]2O [ESTRIOL]	Not Active	Not Active	Not Active	Not Active	Not Active	Not Active	Not Active						
CCN(CC)CCNC(=O)c1ccc(N)cc1 [PROCAINAMIDE]	Not Active	Not Active	Not Active	Not Active	Not Active	Not Active	Not Active						
O=C(O)P(=O)(O)O [FOSCARNET]	Not Active	Not Active	Not Active	Not Active	Not Active	Not Active	Not Active						
C[C@H]1[C@H](NC(=O)/C(=N\OC(C)(C)C(=O)O)c2csc(N)n2)C(=O)N1S(=O)(=O)O [AZTREONAM]	Not Active	Not Active	Not Active	Not Active	Not Active	Not Active	Not Active						
CN1C[C@@H]2C[C@H]1CN2c1cc2c(cc1F)c(=O)c(C(=O)O)cn2C1CC1 [DANOFLOXACIN]	Not Active	Not Active	Not Active	Not Active	Not Active	Not Active	Not Active						
CC(=O)OCC(=O)[C@@]12OC(C)(C)O[C@@H]1C[C@H]1[C@@H]3C[C@H](F)C4=CC(=O)C=C[C@]4(C)[C@@]3(F)[C@@H](O)C[C@@]12C [FLUOCINONIDE]	Not Active	Not Active	Not Active	Not Active	Not Active	Not Active	Not Active						
CN1CCCC(CN2c3ccccc3Sc3ccccc32)C1 (stereo not given) [MEPAZINE]		Not Active	Not Active	Not Active	Not Active	Not Active	Not Active	137	67				
NCCCNCCSP(=O)(O)O [AMIFOSTINE]	Not Active	Not Active	Not Active	Not Active	Not Active	Not Active	Not Active						
CC[C@]1(O)C[C@@H]2CN(CCc3c([nH]c4ccccc34)[C@@](C(=O)OC)(c3cc4c(cc3OC)N(C)[C@H]3[C@@](O)(C(N)=O)[C@H](O)[C@]5(CC)C=CCN6CC[C@]43[C@@H]65)C2)C1 [VINDESINE]	Not Active	Not Active	Not Active	Not Active	Not Active	Not Active	Not Active						
CCn1cc(C(=O)O)c(=O)c2cc(F)c(N3CCNC(C)C3)c(F)c21 (stereo not given) [LOMEFLOXACIN]	Not Active	Not Active			Not Active	Not Active	Not Active						
CN1CCN(c2c(F)cc3c(=O)c(C(=O)O)cn(CCF)c3c2F)CC1 [FLEROXACIN]	Not Active	Not Active	Not Active	Not Active	Not Active	Not Active	Not Active						
CC(C)(C(=O)O)c1ccc(C(O)CCCN2CCC(C(O)(c3ccccc3)c3ccccc3)CC2)cc1 (stereo not given) [FEXOFENADINE]	Not Active	Not Active	Not Active	Not Active	Not Active	Not Active	Not Active						
C[C@H]1COc2c(N3CCN(C)CC3)c(F)cc3c(=O)c(C(=O)O)cn1c23.C[C@H]1COc2c(N3CCN(C)CC3)c(F)cc3c(=O)c(C(=O)O)cn1c23.O [LEVOFLOXACIN]	Not Active	Not Active	Not Active	Not Active	Not Active	Not Active	Not Active						
NC(=O)c1cccc(N)c1 [3-AMINOBENZAMIDE]	Not Active	Not Active	Not Active	Not Active	Not Active	Not Active	Not Active						
CC(=O)OC[C@H]1O[C@@H](n2ncc(=O)[nH]c2=O)[C@H](OC(C)=O)[C@@H]1OC(C)=O [AZARIBINE]	Not Active	Not Active	Not Active	Not Active	Not Active	Not Active	Not Active						
NC(=O)N1c2ccccc2CC(=O)c2ccccc21 [OXCARBAZEPINE]	Not Active	Not Active	Not Active	Not Active	Not Active	Not Active	Not Active						
C#C[C@]1(O)CC[C@H]2[C@@H]3CCC4=CC(=O)CC[C@]4(C)[C@H]3CC[C@@]21C [ETHISTERONE]	Not Active	Not Active	Not Active	Not Active	Not Active	Not Active	Not Active						
N=C(N)c1ccc(OCCCCCOc2ccc(C(=N)N)cc2)cc1 [PENTAMIDINE]	Not Active		Not Active	Not Active	Not Active	Not Active	Not Active						
